Source: article PMC3961306, “Comparison of the Cancer Gene Targeting and Biochemical Selectivities of All Targeted Kinase Inhibitors Approved for Clinical Use” (PLoS ONE, 2014)

Experiments:
Experiment in all cases: Kinase profiling in a biochemical assay panel (mobility shift assays and ELISA), %-inhibition at 1 μM; selectivity entropy
[1] = molecular target: panel of more than 300 wild-type and mutant kinases (313 kinase panel) (Homo sapiens, UniProt Q7KZI7)
[2] = molecular target: T1, panel of more than 300 wild-type and mutant kinases (313 kinase panel) (Homo sapiens, UniProt Q13188)
T1 sequence (Q13188 1-491): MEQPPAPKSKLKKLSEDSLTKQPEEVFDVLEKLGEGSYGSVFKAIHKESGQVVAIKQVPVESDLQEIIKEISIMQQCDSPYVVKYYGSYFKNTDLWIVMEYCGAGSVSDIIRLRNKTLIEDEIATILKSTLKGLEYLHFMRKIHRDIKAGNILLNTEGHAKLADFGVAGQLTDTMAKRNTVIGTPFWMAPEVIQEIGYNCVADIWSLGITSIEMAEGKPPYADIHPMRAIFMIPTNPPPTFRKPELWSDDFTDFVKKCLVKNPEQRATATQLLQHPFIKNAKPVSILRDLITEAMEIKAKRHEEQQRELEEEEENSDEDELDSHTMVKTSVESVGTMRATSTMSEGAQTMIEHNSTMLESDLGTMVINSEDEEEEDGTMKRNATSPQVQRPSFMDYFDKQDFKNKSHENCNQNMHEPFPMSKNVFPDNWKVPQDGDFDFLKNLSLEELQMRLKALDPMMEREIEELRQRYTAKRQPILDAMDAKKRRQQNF

[3] = molecular target: panel of more than 300 wild-type and mutant kinases (313 kinase panel) (Homo sapiens, UniProt P23443)
[4] = molecular target: T2, panel of more than 300 wild-type and mutant kinases (313 kinase panel) (Homo sapiens, UniProt Q12851)
T2 sequence (Q12851 1-820): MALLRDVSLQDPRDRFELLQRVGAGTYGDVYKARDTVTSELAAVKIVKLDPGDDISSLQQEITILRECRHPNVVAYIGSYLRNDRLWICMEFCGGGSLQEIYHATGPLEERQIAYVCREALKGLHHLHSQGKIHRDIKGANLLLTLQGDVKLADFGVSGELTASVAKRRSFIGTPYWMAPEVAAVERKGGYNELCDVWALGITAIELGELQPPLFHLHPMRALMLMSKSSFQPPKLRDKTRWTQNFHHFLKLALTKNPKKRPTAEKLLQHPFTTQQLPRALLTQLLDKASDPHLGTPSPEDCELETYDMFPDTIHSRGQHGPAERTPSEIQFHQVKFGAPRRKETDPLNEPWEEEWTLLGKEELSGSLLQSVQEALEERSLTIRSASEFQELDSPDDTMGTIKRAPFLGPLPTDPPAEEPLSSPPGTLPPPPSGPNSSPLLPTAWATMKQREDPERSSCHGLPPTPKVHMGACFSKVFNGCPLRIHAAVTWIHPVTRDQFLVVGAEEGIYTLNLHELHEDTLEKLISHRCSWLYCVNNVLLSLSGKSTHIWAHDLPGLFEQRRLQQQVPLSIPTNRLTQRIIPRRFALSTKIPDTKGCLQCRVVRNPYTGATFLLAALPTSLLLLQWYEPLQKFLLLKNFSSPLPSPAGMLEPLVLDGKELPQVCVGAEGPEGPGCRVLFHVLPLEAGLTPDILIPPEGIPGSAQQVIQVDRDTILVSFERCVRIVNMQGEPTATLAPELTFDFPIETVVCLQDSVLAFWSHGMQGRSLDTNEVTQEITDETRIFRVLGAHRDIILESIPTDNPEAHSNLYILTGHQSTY

[5] = molecular target: panel of more than 300 wild-type and mutant kinases (313 kinase panel) (Homo sapiens, UniProt Q9UM73)
[6] = molecular target: panel of more than 300 wild-type and mutant kinases (313 kinase panel) (Homo sapiens, UniProt Q9UBS0)
[7] = molecular target: panel of more than 300 wild-type and mutant kinases (313 kinase panel) (Homo sapiens, UniProt Q96GD4)
[8] = molecular target: panel of more than 300 wild-type and mutant kinases (313 kinase panel) (Homo sapiens, UniProt P36507)
[9] = molecular target: panel of more than 300 wild-type and mutant kinases (313 kinase panel) (Homo sapiens, UniProt P08922)
[10] = molecular target: T3, panel of more than 300 wild-type and mutant kinases (313 kinase panel) (Homo sapiens, UniProt Q9HBY8)
T3 sequence (Q9HBY8 1-367): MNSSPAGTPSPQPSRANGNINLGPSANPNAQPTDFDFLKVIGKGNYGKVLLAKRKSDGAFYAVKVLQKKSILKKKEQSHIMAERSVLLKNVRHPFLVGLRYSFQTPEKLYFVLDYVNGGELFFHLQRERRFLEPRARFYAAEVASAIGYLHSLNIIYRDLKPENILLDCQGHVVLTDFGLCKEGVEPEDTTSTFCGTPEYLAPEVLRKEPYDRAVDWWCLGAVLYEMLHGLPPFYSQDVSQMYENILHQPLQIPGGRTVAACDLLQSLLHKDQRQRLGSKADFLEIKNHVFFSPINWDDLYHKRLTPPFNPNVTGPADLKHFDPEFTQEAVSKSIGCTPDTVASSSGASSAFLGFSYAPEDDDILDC

[11] = molecular target: panel of more than 300 wild-type and mutant kinases (313 kinase panel) (Homo sapiens, UniProt P78368)
[12] = kinase MAP4K2, compound at 1 μM
[13] = kinase MAP2K2, compound at 1 μM

Chain of panel of more than 300 wild-type and mutant kinases (313 kinase panel) (Homo sapiens, UniProt Q96GD4) (Q96GD4 whole entry, change not shown): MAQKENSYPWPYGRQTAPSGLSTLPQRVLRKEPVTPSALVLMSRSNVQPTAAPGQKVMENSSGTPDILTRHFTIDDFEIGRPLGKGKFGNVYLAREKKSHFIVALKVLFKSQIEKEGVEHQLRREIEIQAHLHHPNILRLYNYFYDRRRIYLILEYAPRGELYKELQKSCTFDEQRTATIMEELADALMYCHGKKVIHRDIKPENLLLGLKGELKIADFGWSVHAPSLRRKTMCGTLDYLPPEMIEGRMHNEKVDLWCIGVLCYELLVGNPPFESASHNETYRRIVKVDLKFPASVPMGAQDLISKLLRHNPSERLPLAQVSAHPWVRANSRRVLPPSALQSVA

`Cc1ccc(Nc2nccc(N(C)c3ccc4c(C)n(C)nc4c3)n2)cc1S(N)(=O)=O` [pazopanib] was tested, and the “%-inhibition of MARK2” value ([1]; kinase MARK2, compound at 1 μM) was 8%, the “%-inhibition of MST2” value ([2]; kinase MST2, 1 μM) was 2% and the “%-inhibition of p70S6K” value ([3]; kinase p70S6K, 1 μM) was 17%. For the same compound, the “%-inhibition of MAP4K2” value [4, 12] was 71%, the “%-inhibition, ALK” value ([5]; kinase ALK, 1 μM compound) was 48% and the “%-inhibition of p70S6Kβ” value ([6]; kinase p70S6Kβ, 1 μM) was 1.69%. For the same compound, the “%-inhibition, AurB” value ([7]; kinase AurB, 1 μM compound) was 45%, the “%-inhibition of MAP2K2” value [8, 13] was 1.87% and the “%-inhibition of ROS” value ([9]; kinase ROS, 1 μM) was 94%. The “%-inhibition of SGK2” value ([10]; kinase SGK2, 1 μM) was -3.44% and the “%-inhibition, CK1γ2” value ([11]; kinase CK1γ2, 1 μM compound) was -0.747%.
In the case of `CCCS(=O)(=O)Nc1ccc(F)c(C(=O)c2c[nH]c3ncc(-c4ccc(Cl)cc4)cc23)c1F` [vemurafenib], the “%-inhibition of MARK2” value ([1]; kinase MARK2, compound at 1 μM) is reported as -0.167%, the “%-inhibition of MST2” value ([2]; kinase MST2, 1 μM) is reported as 24% and the “%-inhibition of p70S6K” value ([3]; kinase p70S6K, 1 μM) is reported as 9%. The “%-inhibition of MAP4K2” value [4, 12] was 43%, the “%-inhibition, ALK” value ([5]; kinase ALK, 1 μM compound) was 1.14% and the “%-inhibition of p70S6Kβ” value ([6]; kinase p70S6Kβ, 1 μM) was 0.235%. The “%-inhibition, AurB” value ([7]; kinase AurB, 1 μM compound) was 6%, the “%-inhibition of MAP2K2” value [8, 13] was 30% and the “%-inhibition of ROS” value ([9]; kinase ROS, 1 μM) was 2%. For the same compound, the “%-inhibition of SGK2” value ([10]; kinase SGK2, 1 μM) was 2.66% and the “%-inhibition, CK1γ2” value ([11]; kinase CK1γ2, 1 μM compound) was 0.506%.
With `O=S(=O)(c1cccc2cnccc12)N1CCCNCC1` [fasudil] the “%-inhibition of MARK2” value ([1]; kinase MARK2, compound at 1 μM) was 3.21%, the “%-inhibition of MST2” value ([2]; kinase MST2, 1 μM) was 1.77% and the “%-inhibition of p70S6K” value ([3]; kinase p70S6K, 1 μM) was 38%. For the same compound, the “%-inhibition of MAP4K2” value [4, 12] was 4%, the “%-inhibition, ALK” value ([5]; kinase ALK, 1 μM compound) was -4.38% and the “%-inhibition of p70S6Kβ” value ([6]; kinase p70S6Kβ, 1 μM) was 37%. The “%-inhibition, AurB” value ([7]; kinase AurB, 1 μM compound) was 1%, the “%-inhibition of MAP2K2” value [8, 13] was 13% and the “%-inhibition of ROS” value ([9]; kinase ROS, 1 μM) was 4.27%. For the same compound, the “%-inhibition of SGK2” value ([10]; kinase SGK2, 1 μM) was -0.764% and the “%-inhibition, CK1γ2” value ([11]; kinase CK1γ2, 1 μM compound) was 18%.
For `CS(=O)(=O)CCNCc1ccc(-c2ccc3ncnc(Nc4ccc(OCc5cccc(F)c5)c(Cl)c4)c3c2)o1` [lapatinib], the “%-inhibition of MARK2” value ([1]; kinase MARK2, compound at 1 μM) was 10%, the “%-inhibition of MST2” value ([2]; 1 µM) was -0.701% and the “%-inhibition of p70S6K” value ([3]; kinase p70S6K, 1 μM) was 8%. The “%-inhibition of MAP4K2” value [4, 12] was 11%, the “%-inhibition, ALK” value ([5]; kinase ALK, 1 μM compound) was 1.72% and the “%-inhibition of p70S6Kβ” value ([6]; kinase p70S6Kβ, 1 μM) was 8%. The “%-inhibition, AurB” value ([7]; 1 µM) was 9%, the “%-inhibition of MAP2K2” value [8, 13] was 6% and the “%-inhibition of ROS” value ([9]; kinase ROS, 1 μM) was 5.46%. For the same compound, the “%-inhibition of SGK2” value ([10]; kinase SGK2, 1 μM) was 1.81% and the “%-inhibition, CK1γ2” value ([11]; kinase CK1γ2, 1 μM compound) was -1.22%.
In the case of `C#Cc1cccc(Nc2ncnc3cc(OCCOC)c(OCCOC)cc23)c1` [erlotinib], the “%-inhibition of MARK2” value ([1]; 1 µM) is reported as 7%, the “%-inhibition of MST2” value ([2]; 1 µM) is reported as 7% and the “%-inhibition of p70S6K” value ([3]; 1 µM) is reported as 10%. For the same compound, the “%-inhibition of MAP4K2” value ([4]; 1 µM) was 9%, the “%-inhibition, ALK” value ([5]; 1 µM) was 35% and the “%-inhibition of p70S6Kβ” value ([6]; 1 µM) was 13%. The “%-inhibition, AurB” value ([7]; 1 µM) was 25%, the “%-inhibition of MAP2K2” value ([8]; 1 µM) was 8% and the “%-inhibition of ROS” value ([9]; 1 µM) was 8.54%. For the same compound, the “%-inhibition of SGK2” value ([10]; 1 µM) was 10% and the “%-inhibition, CK1γ2” value ([11]; 1 µM) was 8%.
For `Cc1cn(-c2cc(NC(=O)c3ccc(C)c(Nc4nccc(-c5cccnc5)n4)c3)cc(C(F)(F)F)c2)cn1` [nilotinib], the “%-inhibition of MARK2” value ([1]; kinase MARK2, compound at 1 μM) was 0.732%, the “%-inhibition of MST2” value ([2]; kinase MST2, 1 μM) was -8% and the “%-inhibition of p70S6K” value ([3]; kinase p70S6K, 1 μM) was 2%. For the same compound, the “%-inhibition of MAP4K2” value [4, 12] was 3.24%, the “%-inhibition, ALK” value ([5]; kinase ALK, 1 μM compound) was -8% and the “%-inhibition of p70S6Kβ” value ([6]; kinase p70S6Kβ, 1 μM) was -3.7%. The “%-inhibition, AurB” value ([7]; kinase AurB, 1 μM compound) was -11%, the “%-inhibition of MAP2K2” value [8, 13] was -12% and the “%-inhibition of ROS” value ([9]; 1 µM) was -0.679%. The “%-inhibition of SGK2” value ([10]; kinase SGK2, 1 μM) was 24% and the “%-inhibition, CK1γ2” value ([11]; kinase CK1γ2, 1 μM compound) was 5.57%.
